Assay results taken from US10857154B2, “Pharmaceutical composition containing keratin 8 phosphorylation inhibitor for preventing or treating macular degeneration, and method for screening macular degeneration medicine” (priority 2016, dated 2020).
Where two headings read alike, the source gives them in different places.

Experiments:
[1] = tested on: keratin 8 (K8) phosphorylation; assay: Western blotting of P-ERK1/2 and P-K8 in paraquat-treated retinal pigment epithelial cells; type: cell-based, human
Protocol: In the bar graph analyzed from the image of western blotting, the expression levels of P-ERK and P-K8 were calculated (FIG. 2B).
In the bar graph analyzed from the image of western blotting, the expression levels of P-ERK and P-K8 were calculated (FIG. 4A).
(§1) The same procedures as in Example 3 were performed, and 10 μM gefitinib was used in lieu of 50 nM trametinib.

[2] = tested on: APRE-19 cells and human-tissue-derived RPE cells; assay: P-K8 immunostaining: reorganization of K8 around the nucleus under paraquat oxidative stress; type: cell-based
Text: The ARPE-19 cells are cell lines that have been genetically engineered for infinite proliferation for experimental use. However, as the human-tissue-derived RPE cells were obtained by culturing RPE tissue isolated from the human eye without any genetic engineering they were used for experiments under conditions similar to those of human RPE.
Thereafter, P-K8 (green fluorescence) of the cells was immunostained (Abcam; ab32579). The nucleus was stained (Invitrogen; T3605) using TOPRO-3 (blue fluorescence) (FIG. 2C).
P-K8 (green fluorescence) of the cells was immunostained (FIG. 4B).
as §1

[3] = tested on: APRE-19 cells and human-tissue-derived RPE cells; assay: E-cadherin / vimentin immunostaining: epithelial-mesenchymal transition under paraquat oxidative stress; type: cell-based; settings: for E-cadherin expression / vimentin filaments: APRE-19 and human-tissue-derived RPE cells
Protocol: E-cadherin (green fluorescence) and vimentin (red fluorescence) in the cells were immunostained (cell signaling; 7832s). The nucleus was stained using TOPRO-3 (blue fluorescence) (FIG. 3A).
Thereafter, E-cadherin (green fluorescence) and vimentin (red fluorescence) in the cells were immunostained. The nucleus was visualized using TOPRO-3 (blue fluorescence) (FIG. 4C).
as §1

ARPE-19 cells = assay: Cell motility using a Transwell insert; type: cell-based, human; settings: 400 μM paraquat and 20 μM PD98059 for 36 hr, FIG. 3B
Protocol: Also, the cell motility was analyzed using a Transwell insert in ARPE-19 cells selectively treated with 400 μM paraquat and 20 μM PD98059 for 36 hr. As the migrated cells were stained with methylene blue it was confirmed by checking an image (FIG. 3B).

mouse retinal cells = assay: NaIO3-induced retinal degeneration in mouse, ZO-1 immunohistochemical analysis; type: in vivo; settings: 20 mg/kg NaIO3 intravenously, 10 mg/kg PD98059, sacrificed 2 weeks after administration, FIG. 3C
Protocol: 7- to 9-week-old mouse retinal cells were subjected to immunohistochemical analysis (Abcam; ab59720) for a tight junction marker ZO-1 (green fluorescence). A saline-treated group was a control group with intravenous administration of 0.9% NaCl. A mouse group administered intravenously with 20 mg/kg of NaIO3 was selectively treated with 10 mg/kg of PD98059. Animal groups were sacrificed 2 weeks after intravenous administration. The fluorescence images were obtained through a confocal microscope (FIG. 3C).

[4] = APRE-19 cells, 400 μM paraquat 24 hr, then 20 μM PD98059 24 hr, FIG. 2B
[5] = 400 μM paraquat and 20 μM PD98059 for 48 hr, FIG. 3A
[6] = 400 μM paraquat and 10 μM gefitinib for 48 hr, FIG. 5C

SMILES	K8 phosphorylation due to oxidative stress (P-ERK and P-K8 expression levels) [1, 4]	expression of LC3 I/II, the autophagy marker [1, 4]	effect of inhibiting K8 phosphorylation due to oxidative stress (P-K8 expression level) ([1]; APRE-19 cells, 400 μM paraquat 24 hr, then 20 μM PD98059 24 hr, compared to 10 μM SP600125, FIG. 2A)	reorganization of K8 around the nucleus ([2]; APRE-19 and human-tissue-derived RPE cells, 400 μM paraquat and 20 μM PD98059 for 36 hr, FIG. 2C)	epithelial-mesenchymal transition [3, 5]	E-cadherin expression [3, 5]	vimentin filaments [3, 5]	cell motility (ARPE-19 cells)	degeneration of retinal cells (tight junction marker ZO-1) (mouse retinal cells)	K8 phosphorylation due to oxidative stress (P-ERK and P-K8 expression levels) [1]	reorganization of K8 around the nucleus ([2]; APRE-19 cells, 400 μM paraquat and 10 μM gefitinib for 36 hr, FIG. 5B)	epithelial-mesenchymal transition [3, 6]	E-cadherin expression [3, 6]	vimentin filaments [3, 6]
COc1cccc(-c2cc(=O)c3ccccc3o2)c1N [PD98059]	inhibited K8 phosphorylation	not involved in the expression of LC3 I/II	superior	inhibited reorganization of K8 around the nucleus	reduce epithelial-mesenchymal transition	recovered E-cadherin lost	inhibited an increase in vimentin filaments	reduced increased cell motility	restored the degeneration of retinal cells					
COc1cc2ncnc(Nc3ccc(F)c(Cl)c3)c2cc1OCCCN1CCOCC1 [gefitinib]										inhibited phosphorylation of K8	inhibited reorganization of K8 around the nucleus	reduce epithelial-mesenchymal transition	recovered E-cadherin lost	inhibited the increase in vimentin filaments
